For 27 molecules, melting point and IC50 results are on record in article PMC7018746, “An efficient and targeted synthetic approach towards new highly substituted 6-amino-pyrazolo[1,5-a]pyrimidines with α-glucosidase inhibitory activity” (Scientific Reports, 2020).

The target in data set [1] is T1, α-glucosidase (Saccharomyces cerevisiae, EC.3.2.1.20) (Saccharomyces cerevisiae, UniProt P53341).
T1 construct: purchased Sigma-Aldrich
The experiment in a line: biochemical. In kind it is biochemical. The conditions noted are these: mean ± SD, at least three experiments, read-out: IC50 (µM), in vitro α-glucosidase inhibitory activity. On the procedure: α-Glucosidase enzyme (EC3.2.1.20, Saccharomyces cerevisiae, 20 U/mg) and substrate (p-nitrophenyl glucopyranoside) were purchased from Sigma-Aldrich. […] Finally, the change in absorbance was measured at 405 nm by using spectrophotometer (Gen5, Power wave xs2, BioTek, America). DMSO (10% final concentration) and acarbose were used respectively as control and standard drug. The percentage of enzyme inhibitionwas calculated and IC50 values were obtained from non-linear regression curve using the Logit method.

Where two headings read alike, the source gives them in different places.

T1 sequence (P53341 whole entry): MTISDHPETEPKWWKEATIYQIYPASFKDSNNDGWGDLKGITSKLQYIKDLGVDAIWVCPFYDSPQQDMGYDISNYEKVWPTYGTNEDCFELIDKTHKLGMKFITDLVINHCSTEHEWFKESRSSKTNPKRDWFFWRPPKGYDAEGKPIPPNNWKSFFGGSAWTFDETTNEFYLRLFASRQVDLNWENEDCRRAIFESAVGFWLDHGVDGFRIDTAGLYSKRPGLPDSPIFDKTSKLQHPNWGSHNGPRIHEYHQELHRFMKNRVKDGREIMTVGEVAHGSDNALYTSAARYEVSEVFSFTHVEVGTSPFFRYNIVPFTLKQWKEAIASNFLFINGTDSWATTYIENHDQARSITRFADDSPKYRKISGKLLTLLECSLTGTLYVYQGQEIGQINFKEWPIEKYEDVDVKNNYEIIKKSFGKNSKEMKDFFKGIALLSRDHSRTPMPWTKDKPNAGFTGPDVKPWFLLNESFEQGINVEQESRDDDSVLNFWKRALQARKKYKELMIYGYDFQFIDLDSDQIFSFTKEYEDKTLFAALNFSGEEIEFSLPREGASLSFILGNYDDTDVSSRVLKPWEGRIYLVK

By melting point is commonly meant the temperature, or range, at which the solid turns liquid. In general, IC50 refers to the midpoint of a concentration-inhibition curve. With `COc1ccc(NC(=O)c2c(Nc3ccccc3)nn3c(-c4ccc(Cl)cc4)c(N)c(-c4ccccc4)nc23)cc1` [3j, 6-Amino-7-(4-chlorophenyl)-N-(4-methoxyphenyl)-5-phenyl-2-(phenylamino)pyrazolo[1,5-a]pyrimidine-3-carboxamide], the melting point was in the range of 217 to 218 °C. Also, the IC50 in data set [1] (Table 1, compounds 3a-z) was 30.3 ± 2.1 µM.
Regarding `Cc1ccc(-c2nc3c(C(=O)Nc4ccccc4)c(Nc4ccccc4)nn3c(-c3ccc(Cl)cc3)c2N)cc1` [3c, 6-Amino-7-(4-chlorophenyl)-N-phenyl-2-(phenylamino)-5-p-tolylpyrazolo[1,5-a]pyrimidine-3-carboxamide], the melting point was 232 to 233 °C. The IC50 in data set [1] (Table 1, compounds 3a-z) turned out to be 44.5 ± 3.1 µM.
For `Nc1c(-c2ccc(Cl)cc2)nc2c(C(=O)Nc3ccccc3)c(Nc3ccccc3)nn2c1-c1ccccc1` [3g, 6-Amino-5-(4-chlorophenyl)-N,7-diphenyl-2-(phenylamino)pyrazolo[1,5-a]pyrimidine-3-carboxamide], in that order: 285 to 286 °C and 75.6 ± 5 µM.
For `Nc1c(-c2ccc(Cl)cc2)nc2c(C(=O)Nc3ccc(Cl)cc3)c(Nc3ccccc3)nn2c1-c1ccc(Cl)cc1` [3y, 6-Amino-N,5,7-tris(4-chlorophenyl)-2-(phenylamino)pyrazolo[1,5-a]pyrimidine-3-carboxamide], in that order: 268 to 270 °C and 38.2 ± 2.8 µM.
`CCOC(=O)c1c(-c2ccccc2)nn2c(-c3cccs3)c(N)c(-c3ccc(Cl)cc3)nc12` [3ai, Ethyl 6-amino-5-(4-chlorophenyl)-2-phenyl-7-(thiophen-2-yl)pyrazolo[1,5-a]pyrimidine-3-carboxylate] registered a melting point of 192 to 193 °C. In addition, the IC50 in data set [1] (Table 2, compounds 3aa-ai) was found to be 153 ± 5 µM.
Molecule `Nc1c(-c2ccccc2)nc2c(C(=O)Nc3ccc(Cl)cc3)c(Nc3ccccc3)nn2c1-c1ccc(Br)cc1` [3t, 6-Amino-7-(4-bromophenyl)-N-(4-chlorophenyl)-5-phenyl-2-(phenylamino)pyrazolo[1,5-a]pyrimidine-3-carboxamide] registered a melting point of 294 to 296 °C. Moreover, the IC50 in data set [1] (Table 1, compounds 3a-z) was 60 ± 4 µM.
The like results for `Nc1c(-c2ccccc2)nc2c(C(=O)Nc3ccc(Cl)cc3)c(Nc3ccccc3)nn2c1-c1ccc(Cl)cc1` [3s, 6-Amino-N,7-bis(4-chlorophenyl)-5-phenyl-2-(phenylamino)pyrazolo[1,5-a]pyrimidine-3-carboxamide] were, in that order, 274 to 275 °C and 42.3 ± 3.1 µM.
The molecule `Nc1c(-c2ccc(Cl)cc2)nc2c(C(=O)Nc3ccc(Cl)cc3)c(Nc3ccccc3)nn2c1-c1ccccc1` [3x, 6-Amino-N,5-bis(4-chlorophenyl)-7-phenyl-2-(phenylamino)pyrazolo[1,5-a]pyrimidine-3-carboxamide] came in with a melting point of 255 to 257 °C. For the same molecule, the half-inhibitory concentration (IC50) in data set [1] (Table 1, compounds 3a-z) was determined as 80.3 ± 5.2 µM.
The like results for `COc1ccc(NC(=O)c2c(Nc3ccccc3)nn3c(-c4cccs4)c(N)c(-c4ccc(Cl)cc4)nc23)cc1` [3r, 6-Amino-5-(4-chlorophenyl)-N-(4-methoxyphenyl)-2-(phenylamino)-7-(thiophen-2-yl)pyrazolo[1,5-a]pyrimidine-3-carboxamide] were, in that order, 240 to 242 °C and 18.4 ± 0.6 µM.
Take `CCOC(=O)c1c(-c2ccccc2)nn2c(-c3ccccc3)c(N)c(-c3ccc(OC)cc3)nc12` [3ae, Ethyl 6-amino-5-(4-methoxyphenyl)-2,7-diphenylpyrazolo[1,5-a]pyrimidine-3-carboxylate]: the melting point lay within 189 to 190 °C. The IC50 in data set [1] (Table 2, compounds 3aa-ai) amounted to 116 ± 1.8 µM.
In turn, `COc1ccc(NC(=O)c2c(Nc3ccccc3)nn3c(-c4ccc(Cl)cc4)c(N)c(-c4ccc(C)cc4)nc23)cc1` [3l, 6-Amino-7-(4-chlorophenyl)-N-(4-methoxyphenyl)-2-(phenylamino)-5-p-tolylpyrazolo[1,5-a]pyrimidine-3-carboxamide] returned a melting point of 263 to 265 °C. Further, the IC50 in data set [1] (Table 1, compounds 3a-z) was determined as 49.3 ± 3.3 µM.
In turn, `CCOC(=O)c1c(-c2ccccc2)nn2c(-c3ccc(Cl)cc3)c(N)c(-c3ccc(Cl)cc3)nc12` [3ah, Ethyl 6-amino-5,7-bis(4-chlorophenyl)-2-phenylpyrazolo[1,5-a]pyrimidine-3-carboxylate] gave a melting point of 245 to 246 °C. Further, the concentration for half-maximal inhibition (IC50) in data set [1] (Table 2, compounds 3aa-ai) was 162 ± 3.2 µM.
As for `COc1ccc(NC(=O)c2c(Nc3ccccc3)nn3c(-c4ccccc4)c(N)c(-c4ccc(Cl)cc4)nc23)cc1` [3p, 6-Amino-5-(4-chlorophenyl)-N-(4-methoxyphenyl)-7-phenyl-2-(phenylamino)pyrazolo[1,5-a]pyrimidine-3-carboxamide], the melting point was 245 to 246 °C. In addition, in data set [1] (Table 1, compounds 3a-z), the IC50 was 33.2 ± 2.1 µM.
The molecule `Nc1c(-c2ccccc2)nc2c(C(=O)Nc3ccccc3)c(Nc3ccccc3)nn2c1-c1ccc(Br)cc1` [3b, 6-Amino-7-(4-bromophenyl)-N,5-diphenyl-2-(phenylamino)pyrazolo[1,5-a]pyrimidine-3-carboxamide] had a melting point of 235 to 237 °C. For the same molecule, in data set [1] (Table 1, compounds 3a-z), the IC50 is 40 ± 2.9 µM.
Molecule `COc1ccc(NC(=O)c2c(Nc3ccccc3)nn3c(-c4ccc(Cl)cc4)c(N)c(-c4ccc(OC)cc4)nc23)cc1` [3o, 6-Amino-7-(4-chlorophenyl)-N,5-bis(4-methoxyphenyl)-2-(phenylamino)pyrazolo[1,5-a]pyrimidine-3-carboxamide] returned a melting point of 268 to 269 °C. Also, the half-inhibitory concentration (IC50) in data set [1] (Table 1, compounds 3a-z) stood at 56.2 ± 3.2 µM.
For `COc1ccc(NC(=O)c2c(Nc3ccccc3)nn3c(-c4ccccc4)c(N)c(-c4ccc(OC)cc4)nc23)cc1` [3n, 6-Amino-N,5-bis(4-methoxyphenyl)-7-phenyl-2-(phenylamino)pyrazolo[1,5-a]pyrimidine-3-carboxamide], in that order: 248 to 250 °C and 42.6 ± 1.1 µM.
For `Nc1c(-c2ccc(Cl)cc2)nc2c(C(=O)Nc3ccc(Cl)cc3)c(Nc3ccccc3)nn2c1-c1cccs1` [3z, 6-Amino-N,5-bis(4-chlorophenyl)-2-(phenylamino)-7-(thiophen-2-yl)pyrazolo[1,5-a]pyrimidine-3-carboxamide], in that order: 274 to 276 °C and 19.3 ± 0.9 µM.
For the molecule `CCOC(=O)c1c(-c2ccccc2)nn2c(-c3ccc(Br)cc3)c(N)c(-c3ccccc3)nc12` [3ab, Ethyl 6-amino-7-(4-bromophenyl)-2,5-diphenylpyrazolo[1,5-a]pyrimidine-3-carboxylate], the melting point lay in the range of 201 to 202 °C. Besides, the IC50 in data set [1] (Table 2, compounds 3aa-ai) came to 150 ± 4 µM.
For the molecule `Nc1c(-c2ccc(Cl)cc2)nc2c(C(=O)Nc3ccccc3)c(Nc3ccccc3)nn2c1-c1cccs1` [3i, 6-Amino-5-(4-chlorophenyl)-N-phenyl-2-(phenylamino)-7-(thiophen-2-yl)pyrazolo[1,5-a]pyrimidine-3-carboxamide], the melting point fell in the range of 270 to 271 °C. Further, in data set [1] (Table 1, compounds 3a-z), the IC50 came out at 28.1 ± 1.2 µM.
In turn, `CCOC(=O)c1c(-c2ccccc2)nn2c(-c3ccccc3)c(N)c(-c3ccc(Cl)cc3)nc12` [3ag, Ethyl 6-amino-5-(4-chlorophenyl)-2,7-diphenylpyrazolo[1,5-a]pyrimidine-3-carboxylate] came in with a melting point of 238 to 239 °C. For the same molecule, in data set [1] (Table 2, compounds 3aa-ai), the IC50 stood at 201 ± 4.2 µM.
Turning to `Nc1c(-c2ccccc2)nc2c(C(=O)Nc3ccccc3)c(Nc3ccccc3)nn2c1-c1ccc(Cl)cc1` [3a, 6-Amino-7-(4-chlorophenyl)-N,5-diphenyl-2-(phenylamino)pyrazolo[1,5-a]pyrimidine-3-carboxamide], the melting point lay within 248 to 249 °C. Moreover, the IC50 in data set [1] (Table 1, compounds 3a-z) stood at 37.8 ± 2.5 µM.
In the case of `CCOC(=O)c1c(-c2ccccc2)nn2c(-c3ccc(Cl)cc3)c(N)c(-c3ccccc3)nc12` [3aa, Ethyl 6-amino-7-(4-chlorophenyl)-2,5-diphenylpyrazolo[1,5-a]pyrimidine-3-carboxylate], the melting point fell in the range of 180 to 182 °C. Moreover, the half-maximal inhibitory concentration (IC50) in data set [1] (Table 2, compounds 3aa-ai) was 94 ± 3.6 µM.
Molecule `Nc1c(-c2ccc(Cl)cc2)nc2c(C(=O)Nc3ccccc3)c(Nc3ccccc3)nn2c1-c1ccc(Cl)cc1` [3h, 6-Amino-5,7-bis(4-chlorophenyl)-N-phenyl-2-(phenylamino)pyrazolo[1,5-a]pyrimidine-3-carboxamide] came in with a melting point of 281 to 283 °C. For the same molecule, the IC50 in data set [1] (Table 1, compounds 3a-z) was 25.7 ± 1.1 µM.
In the case of `CCOC(=O)c1c(-c2ccccc2)nn2c(-c3ccc(Br)cc3)c(N)c(-c3ccc(C)cc3)nc12` [3ad, Ethyl 6-amino-7-(4-bromophenyl)-2-phenyl-5-p-tolylpyrazolo[1,5-a]pyrimidine-3-carboxylate], the melting point is 230 to 232 °C. In data set [1] (Table 2, compounds 3aa-ai), the half-inhibitory concentration (IC50) came to 141 ± 7 µM.
`COc1ccc(-c2nc3c(C(=O)Nc4ccccc4)c(Nc4ccccc4)nn3c(-c3ccccc3)c2N)cc1` [3e, 6-Amino-5-(4-methoxyphenyl)-N,7-diphenyl-2-(phenylamino)pyrazolo[1,5-a]pyrimidine-3-carboxamide] had a melting point of 257 to 259 °C. The IC50 in data set [1] (Table 1, compounds 3a-z) worked out at 63.3 ± 4.4 µM.
For `COc1ccc(-c2nc3c(C(=O)Nc4ccc(Cl)cc4)c(Nc4ccccc4)nn3c(-c3ccccc3)c2N)cc1` [3w, 6-Amino-N-(4-chlorophenyl)-5-(4-methoxyphenyl)-7-phenyl-2-(phenylamino)pyrazolo[1,5-a]pyrimidine-3-carboxamide], in that order: 255 to 257 °C and 53.7 ± 3.4 µM.
`COc1ccc(NC(=O)c2c(Nc3ccccc3)nn3c(-c4ccc(Br)cc4)c(N)c(-c4ccccc4)nc23)cc1` [3k, 6-Amino-7-(4-bromophenyl)-N-(4-methoxyphenyl)-5-phenyl-2-(phenylamino)pyrazolo[1,5-a]pyrimidine-3-carboxamide] returned a melting point of 256 to 258 °C. Further, the IC50 in data set [1] (Table 1, compounds 3a-z) came to 57.4 ± 3.8 µM.
